Results on one molecule are retold here after patent publication US11932651B1, “2-benzo-[3,4-B]quinolino-[b,g]indeno[1′,2′:3,4]fluoreno-[1,2-d]oxonine-24-chloro-5,11,16,21-tetraone as an antimicrobial compound” (KING FAISAL UNIVERSITY, priority 2023, dated 2024).

One series relates to Staphylococcus aureus. Nature of the series: Antimicrobial screening by agar dilution, Staphylococcus aureus. The format is cell-based. The conditions noted are these: after 10, 20, 40 and 60 minutes at all dilutions 1:100, 1:200, 1:400, 1:800. As for the experimental part:
(§1) The antibacterial properties of the synthesized compound 2-benzo-[3,4-b]quinolino-[b,g]indeno[1′,2′:3,4]fluoreno-[1,2-d]oxonine-24-chloro-5,11,16,21-tetraone were studied by the method of agar dilution. Test solutions of each compound was prepared in concentration of 1% using dimethylformamide as a solvent then they are diluted in physiological solution to obtain the final experimental dilutions 1:100, 1:200, 1:400, 1:800. The effect of these substances are compared with furacillin in a controllable study. The testing microbes used were gram positive bacteria Staphylococcus aureus, gram negative bacteria Pseudomonas aeruginosa and Escherichia coli and Candida albicans fungus. The experiments used for this survey were meat-pentonlu agar (EPA) for cultivation of bacteria and Saburo environment for the fungus. Each experiment used 1 mL of test solution on each plate […]. Two drops of emulsified with microbes feel were added. All experimental samples were taken from the agar after 10, 20, 40, 60 minutes in the environment on the basis of Patrk planted. The bacteria were cultivated at a temperature of 37° C. for 1 day and the mushroom was kept in a thermostat for […] at a temperature of 28° C. Then results were checked.

The test system of another series is Escherichia coli. Kind of series: Antimicrobial screening by agar dilution, Escherichia coli. The format is cell-based. The conditions noted are these: after 10, 20, 40 and 60 minutes at all dilutions 1:100, 1:200, 1:400, 1:800. On the procedure:
as §1
For orientation: Agar dilution tests growth on a series of plates holding different concentrations.

The subject of a further series is Pseudomonas aeruginosa. Kind of series: Antimicrobial screening by agar dilution, Pseudomonas aeruginosa. The format is cell-based. The conditions noted are these: after 10, 20, 40 and 60 minutes at all dilutions 1:100, 1:200, 1:400, 1:800. On the procedure:
as §1

Another series concerns Candida albicans. Kind of series: Antimicrobial screening by agar dilution, Candida albicans. The format is cell-based. The conditions noted are these: after 10, 20, 40 and 60 minutes at all dilutions 1:100, 1:200, 1:400, 1:800. As for the experimental part: as §1

By melting point is commonly meant the temperature, or range, at which the solid turns liquid. With `O=C1Oc2nc3ccc(Cl)cc3cc2-c2c(c3c4ccccc4c(=O)c3c3c2c(=O)c2ccccc23)C(=O)c2ccccc21` [2-benzo-[3,4-b]quinolino-[b,g]indeno[1′,2′:3,4]fluoreno-[1,2-d]oxonine-24-chloro-5,11,16,21-tetraone], the melting point came out at 241 °C. In addition, the “inhibition activity, Staphylococcus aureus” value in the series with Staphylococcus aureus is listed as “highest inhibition activity”. Also, in the series on Escherichia coli, the “inhibition activity, Escherichia coli” value was “highest inhibition activity”. Besides, the “inhibition activity, Pseudomonas aeruginosa” value in the series with Pseudomonas aeruginosa is “highest inhibition activity”. Also, the “inhibition activity, Candida albicans” value with Candida albicans is reported as “highest inhibition activity”.
